Test results from ChEMBL document CHEMBL4742390, “Derivatives of quinolines as inhibitors of dyrk1a and/or dyrk1b kinases” (2019).

Assays:
[1] = biological target: Dual specificity tyrosine-phosphorylation-regulated kinase 1B (Homo sapiens, UniProt Q9Y463); assay: Inhibition of N-terminal GST tagged human DYRK1B expressed in Sf21 cells incubated for 60 mins by ADP-Glo assay
[2] = biological target: Dual specificity tyrosine-phosphorylation-regulated kinase 1A (Homo sapiens, UniProt Q13627); assay: Inhibition of N-terminal GST tagged human DYRK1A expressed in Sf21 cells incubated for 30 mins by ADP-Glo assay

Dual specificity tyrosine-phosphorylation-regulated kinase 1B, sequence (Q9Y463 whole entry): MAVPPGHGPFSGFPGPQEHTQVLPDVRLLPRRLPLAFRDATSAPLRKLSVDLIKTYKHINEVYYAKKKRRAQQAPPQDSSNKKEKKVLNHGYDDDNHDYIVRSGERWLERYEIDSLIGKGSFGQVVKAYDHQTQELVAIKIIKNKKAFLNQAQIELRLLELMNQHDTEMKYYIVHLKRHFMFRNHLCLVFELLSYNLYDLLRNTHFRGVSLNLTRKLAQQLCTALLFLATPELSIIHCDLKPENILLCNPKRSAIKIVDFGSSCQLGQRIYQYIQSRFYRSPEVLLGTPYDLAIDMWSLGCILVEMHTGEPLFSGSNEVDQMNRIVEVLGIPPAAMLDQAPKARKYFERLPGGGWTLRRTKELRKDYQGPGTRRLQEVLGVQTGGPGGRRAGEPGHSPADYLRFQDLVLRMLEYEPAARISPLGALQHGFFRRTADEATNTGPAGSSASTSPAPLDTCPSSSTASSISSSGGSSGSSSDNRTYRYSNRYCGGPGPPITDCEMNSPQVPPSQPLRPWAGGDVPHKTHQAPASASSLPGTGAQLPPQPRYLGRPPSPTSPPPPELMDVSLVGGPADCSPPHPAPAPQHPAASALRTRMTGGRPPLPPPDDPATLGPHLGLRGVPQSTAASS

IC50 ([1]; sf21) | IC50 [2] | IC50 [1] | IC50 ([2]; sf21) | SMILES
0.01 µM |  |  |  | CN1CCC(Nc2ccnc3ccc(-c4c[nH]c5ncccc45)cc23)CC1
 | < 0.01 µM | < 0.01 µM |  | C=CCN(C)C(=O)c1cnc2[nH]cc(-c3cc(F)c4ncccc4c3)c2c1
0.01 µM | < 0.01 µM |  |  | C=CCN(C)Cc1cnc2[nH]cc(-c3cc(F)c4nccc(-c5cccnc5)c4c3)c2c1
0.01 µM |  |  |  | CN1CCC(Nc2c(C#N)cnc3ccc(-c4c[nH]c5ncccc45)cc23)CC1
 | < 0.01 µM | < 0.01 µM |  | O=C(NCc1cccnc1)c1cnc2[nH]cc(-c3ccc4ncc(NCC5CCOCC5)cc4c3)c2c1
 | < 0.01 µM | < 0.01 µM |  | c1cnc2ccc(-c3c[nH]c4ncccc34)cc2c1
 | < 0.01 µM | < 0.01 µM |  | CNC(=O)c1cnc2[nH]cc(-c3cc(F)c4nccc(-c5cccnc5)c4c3)c2c1
0.01 µM | < 0.01 µM |  |  | CNC(=O)c1cnc2[nH]cc(-c3ccc4ncc(NCC5CCOCC5)c(N5CCOCC5)c4c3)c2c1
 | ≥ 0.1 µM | ≥ 0.1 µM |  | C=CCN(C)C(=O)c1cnc2[nH]cc(-c3cc(OC)c4ncccc4c3)c2c1
 | < 0.01 µM | < 0.01 µM |  | CNC(=O)c1cnc2[nH]cc(-c3ccc4nccc(-c5cccnc5)c4c3)c2c1
 | < 0.01 µM | < 0.01 µM |  | c1cnc2[nH]cc(-c3ccc4ncc(NCc5ccoc5)cc4c3)c2c1
 | < 0.01 µM | < 0.01 µM |  | Clc1cc(-c2c[nH]c3ncccc23)cc2cccnc12
 | < 0.01 µM | < 0.01 µM |  | N[C@@H]1CCCN(c2ccnc3c(F)cc(-c4c[nH]c5ncc(CNCc6ccccc6)cc45)cc23)C1
 | < 0.01 µM | < 0.01 µM |  | c1cnc2[nH]cc(-c3ccc4nccc(-c5ccncc5)c4c3)c2c1
 | < 0.01 µM | < 0.01 µM |  | NCCCNC(=O)c1cnc2[nH]cc(-c3cc(F)c4ncccc4c3)c2c1
0.01 µM | < 0.01 µM |  |  | C=CCN(C)C(=O)c1cnc2[nH]cc(-c3cc(F)c4nccc(-c5cccnc5)c4c3)c2c1
 | < 0.01 µM | < 0.01 µM |  | Fc1cc(-c2c[nH]c3ncccc23)cc2cccnc12
 | < 0.01 µM | < 0.01 µM |  | CNC(=O)c1cnc2[nH]cc(-c3ccc4nccc(Cl)c4c3)c2c1
 | < 0.01 µM | < 0.01 µM |  | N[C@H]1CCCN(c2ccnc3ccc(-c4c[nH]c5ncccc45)cc23)C1
 | < 0.01 µM | < 0.01 µM |  | CNC(=O)c1cnc2[nH]cc(-c3cc(F)c4nccc(-c5cnccc5C)c4c3)c2c1
 | < 0.01 µM | < 0.01 µM |  | NC(=O)c1cnc2[nH]cc(-c3cc(F)c4ncccc4c3)c2c1
 |  | ≥ 0.1 µM | 0.01 µM | COc1cc(-c2c[nH]c3ncc(C(N)=O)cc23)cc2c(-c3cccnc3)ccnc12

IC50 ([1]; sf21) | IC50 [2] | IC50 [1] | IC50 ([2]; sf21) | SMILES
0.01 µM | < 0.01 µM |  |  | CNC(=O)c1cnc2[nH]cc(-c3ccc4ncc(NCc5cccc(Cl)c5)c(N5CCC[C@H](N)C5)c4c3)c2c1
0.01 µM |  |  |  | Clc1ccnc2ccc(-c3c[nH]c4ncccc34)cc12
0.01 µM | < 0.01 µM |  |  | CNC(=O)c1cnc2[nH]cc(-c3ccc4ncc([N+](=O)[O-])c(N5CCC[C@H](N)C5)c4c3)c2c1
0.01 µM |  |  | 0.01 µM | N[C@H]1CC[C@H](Nc2c([N+](=O)[O-])cnc3ccc(-c4c[nH]c5ncc(C(=O)NCc6cccnc6)cc45)cc23)CC1
 | < 0.01 µM | < 0.01 µM |  | CC(=O)Nc1cnc2[nH]cc(-c3cc(F)c4nccc(-c5cccnc5)c4c3)c2c1
 |  | ≥ 0.1 µM |  | CNC(=O)c1cnc2[nH]cc(-c3cc(OC)c4ncccc4c3)c2c1
 | < 0.01 µM | < 0.01 µM |  | O=C(NCc1cccnc1)c1cnc2[nH]cc(-c3cc(F)c4nccc(-c5cccnc5)c4c3)c2c1
 | < 0.01 µM | < 0.01 µM |  | CC(=O)N1CCC(Nc2c(N)cnc3ccc(-c4c[nH]c5ncccc45)cc23)CC1
 | < 0.01 µM | < 0.01 µM |  | CNC(=O)c1cnc2[nH]cc(-c3cc(F)c4ncccc4c3)c2c1
 | < 0.01 µM | < 0.01 µM |  | CNC(=O)c1cnc2[nH]cc(-c3ccc4ncc(N)c(N5CCC[C@H](N)C5)c4c3)c2c1
0.01 µM |  |  |  | Cc1cc(-c2c[nH]c3ncccc23)cc2c(-c3cccnc3)ccnc12
 | < 0.01 µM | < 0.01 µM |  | CNC(=O)c1cnc2[nH]cc(-c3ccc4nccc(N5CCOCC5)c4c3)c2c1
 | ≥ 0.1 µM | ≥ 0.1 µM |  | Cc1cc(-c2c[nH]c3ncccc23)cc2c(-c3ccccc3)ccnc12
 | < 0.01 µM | < 0.01 µM |  | NCCCNC(=O)c1cnc2[nH]cc(-c3cc(F)c4nccc(-c5cccnc5)c4c3)c2c1
0.01 µM | < 0.01 µM |  |  | O=C(NCc1ccccc1)c1cnc2[nH]cc(-c3cc(F)c4nccc(-c5cccnc5)c4c3)c2c1
 | < 0.01 µM | < 0.01 µM |  | Nc1cnc2ccc(-c3c[nH]c4ncc(C(=O)NCc5cccnc5)cc34)cc2c1
 | < 0.01 µM | < 0.01 µM |  | Fc1cc(-c2c[nH]c3ncccc23)cc2c(-c3cccnc3)ccnc12
 | < 0.01 µM | < 0.01 µM |  | c1cncc(-c2ccnc3ccc(-c4c[nH]c5ncccc45)cc23)c1
 | < 0.01 µM | < 0.01 µM |  | CNC(=O)c1cnc2[nH]cc(-c3ccc4ncc(NC(C)=O)c(N5CCOCC5)c4c3)c2c1
 | < 0.01 µM | < 0.01 µM |  | CNC(=O)c1cnc2[nH]cc(-c3ccc4ncccc4c3)c2c1
 | < 0.01 µM | < 0.01 µM |  | CNC(=O)c1cnc2[nH]cc(-c3cc(F)c4nccc(N5CCC[C@H](N)C5)c4c3)c2c1
 | < 0.01 µM | < 0.01 µM |  | N[C@@H]1CCCN(c2ccnc3c(F)cc(-c4c[nH]c5ncc(C(=O)NCc6cncnc6)cc45)cc23)C1

IC50 ([1]; sf21) | IC50 [2] | IC50 [1] | IC50 ([2]; sf21) | SMILES
 |  | ≥ 0.1 µM | 0.01 µM | FC(F)(F)Oc1cc(-c2c[nH]c3ncccc23)cc2cccnc12
0.01 µM | < 0.01 µM |  |  | CNC(=O)c1cnc2[nH]cc(-c3ccc4ncc(NCc5cccc(Cl)c5)c(N5CCOCC5)c4c3)c2c1
 |  | ≥ 0.1 µM |  | N[C@H]1CC[C@H](Nc2ccnc3ccc(-c4c[nH]c5ncccc45)cc23)CC1
 |  | ≥ 0.1 µM |  | Cc1cc(-c2c[nH]c3ncccc23)cc2cccnc12
0.01 µM | < 0.01 µM |  |  | C=CCN(C)C(=O)c1cnc2[nH]cc(-c3ccc4nccc(Cl)c4c3)c2c1
 |  | ≥ 0.1 µM |  | COc1cc(-c2c[nH]c3ncccc23)cc2cccnc12
 | < 0.01 µM | < 0.01 µM |  | N[C@@H]1CCCN(c2ccnc3c(F)cc(-c4c[nH]c5ncc(C(=O)NCc6cccnc6)cc45)cc23)C1
0.01 µM | < 0.01 µM |  |  | C=CCN(C)C(=O)c1cnc2[nH]cc(-c3cc(Cl)c4ncccc4c3)c2c1
0.01 µM | < 0.01 µM |  |  | O=C(NCc1ccccc1)c1cnc2[nH]cc(-c3cc(Cl)c4ncccc4c3)c2c1
 | < 0.01 µM | < 0.01 µM |  | NCCCNC(=O)c1cnc2[nH]cc(-c3cc(Cl)c4ncccc4c3)c2c1
 | < 0.01 µM | < 0.01 µM |  | c1ccc(-c2ccnc3ccc(-c4c[nH]c5ncccc45)cc23)cc1
 | < 0.01 µM | < 0.01 µM |  | CC(=O)Nc1cnc2ccc(-c3c[nH]c4ncc(C(=O)NCc5cccnc5)cc34)cc2c1
0.01 µM | < 0.01 µM |  |  | N[C@H]1CC[C@H](Nc2c(NCC3CCOCC3)cnc3ccc(-c4c[nH]c5ncc(C(=O)NCc6cccnc6)cc45)cc23)CC1
 | < 0.01 µM | < 0.01 µM |  | CNC(=O)c1cnc2[nH]cc(-c3cc(F)c4nccc(CCc5ccccc5)c4c3)c2c1
 | < 0.01 µM | < 0.01 µM |  | CNC(=O)c1cnc2[nH]cc(-c3cc(F)c4nccc(N5CCC[C@@H](N)C5)c4c3)c2c1
0.01 µM | < 0.01 µM |  |  | C=CCCCc1ccnc2ccc(-c3c[nH]c4ncc(CN(C)CC=C)cc34)cc12
 |  | < 0.01 µM |  | N[C@H]1CCN(c2ccnc3ccc(-c4c[nH]c5ncccc45)cc23)C1
 | < 0.01 µM | < 0.01 µM |  | Fc1cc(-c2c[nH]c3ncc(CNCc4ccccc4)cc23)cc2c(-c3cccnc3)ccnc12
 | < 0.01 µM | < 0.01 µM |  | O=C(NCc1ccccc1)c1cnc2[nH]cc(-c3cc(F)c4ncccc4c3)c2c1
 |  | ≥ 0.1 µM |  | CNC(=O)c1cnc2[nH]cc(-c3cc(C)c4nccc(-c5cccnc5)c4c3)c2c1

SMILES | IC50 ([1]; sf21) | IC50 [2] | IC50 [1] | IC50 ([2]; sf21)
CN1CCC(N(C)c2c([N+](=O)[O-])cnc3ccc(-c4c[nH]c5ncccc45)cc23)CC1 | 0.01 µM |  |  | 0.01 µM
C=CC1CN2CCC1CC2[C@H](O)c1ccnc2ccc(-c3c[nH]c4ncccc34)cc12 (some centres not stated) |  | < 0.01 µM | < 0.01 µM | 
